Assay: Single-dose, dose escalation study Part 1: pharmacokinetics of plasma/urine cromolyn sodium (DSCG)
Format: in vivo
Conditions: human, plasma, inhaled, 40 mg

- AUC (40 mg dose using the 30L device (text repeat of Table 2, PA-101)): 338 ng·h/mL
- AUC (40 mg dose using the 40L device (text repeat of Table 2, PA-101)): 212 ng·h/mL
Structure (SMILES): O=C(O)c1cc(=O)c2c(OCC(O)COc3cccc4oc(C(=O)O)cc(=O)c34)cccc2o1 [cromolyn sodium]
